Values joined by “and” are separate entries in the source; they are usually repeats but may differ in a detail not shown here. Equal entries are not always repeated. After the bases stand the sugars from the 5' end (letter, count) and the backbone: PS all phosphorothioate, else s phosphorothioate and o phosphodiester by linkage. Methylation of C is not given here. e = 2'-O-(2-methoxyethyl) (MOE); d = 2'-deoxy (DNA)

For the series, the target named is DGAT2. The conditions noted are these: ASO.

Take “CGTGAGCTGGTGTTCTACAA (sugars e5 d10 e5, PS)”: the target mRNA inhibition came to 59% (HepG2, 2.5 µM) and 74% (HepG2, 10 µM).

For the sequence “AGAGGATGCTGGATCCAGTG (sugars e5 d10 e5, PS)”, the target mRNA inhibition (HepG2, 0.12 µM) amounted to 45%. Regarding “TTGTGTGTCTTCACCAGCTG (sugars e5 d10 e5, PS)”, the target mRNA inhibition (HepG2, 0.12 µM) was 63% and 73%.

Sequence “GGCCCAACCCCCTCAGGAAG (sugars e5 d10 e5, PS)” had a target mRNA inhibition (HepG2, 0.12 µM) of 19%.

“AGGCAGATGGACAGGTGATT (sugars e5 d10 e5, PS)”: the target mRNA inhibition was 54% (HepG2, 2.5 µM) and 92% (HepG2, 10 µM). Turning to “TGATTCTTACCTGCAATGAG (sugars e5 d10 e5, PS)”, the target mRNA inhibition (HepG2, 0.12 µM) came to 22%. Sequence “TTTCGGACCCACTGTGACCT (sugars e5 d10 e5, PS)” displayed a target mRNA inhibition (HepG2, 0.12 µM) of 65%. On the same count and under the same terms, the value for “TAGCCAGGTAAGGCCGTATG (sugars e3 d14 e3, PS)” was 49%; that for “AGAGGGTTCCATGGCACAAA (sugars e5 d10 e5, PS)” was 67%. The sequence “CACCAGCCAAGTGAAGTAGA (sugars e5 d10 e5, PS)” registered a target mRNA inhibition (HepG2, 0.12 µM) of 23%. “ACTATCACACCACCTCCCAC (sugars e5 d10 e5, PS)” had a target mRNA inhibition (HepG2, 2.5 µM) of 2% and a target mRNA inhibition (HepG2, 10 µM) of 62%. “TTCCATTTTTTACCCAACCT (sugars e5 d10 e5, PS)”: the target mRNA inhibition came to 57% (HepG2, 2.5 µM) and 93% (HepG2, 10 µM). Consider “GCATTTTAACAAGATCCCCA (sugars e5 d10 e5, PS)”, for which the target mRNA inhibition (HepG2, 0.12 µM) is 34%. As to “TCAGAAGGCCAGGCCCCTTC (sugars e5 d10 e5, PS)”, for the setting “HepG2, 0.12 µM”, the target mRNA inhibition was 20%. As to “TTGTCCTAGTGCCCCAGGGA (sugars e5 d10 e5, PS)”, the target mRNA inhibition reads like this: (HepG2, 2.5 µM) 75%; (HepG2, 10 µM) 85%.

For “CACTAAATTAGGAAGCTGGG (sugars e5 d10 e5, PS)”, the target mRNA inhibition runs as follows: (HepG2, 2.5 µM) 81% and 82%; (HepG2, 10 µM) 83% and 85%.

Consider “AGCACAGCGATGAGCCAGCA (sugars e5 d10 e5, PS)”, for which the target mRNA inhibition (HepG2, 0.12 µM) amounted to 35%. Take “ACCTCACCTCCATACTGGCA (sugars e5 d10 e5, PS)”: the target mRNA inhibition reads like this: (HepG2, 2.5 µM) 65%; (HepG2, 10 µM) 86%. Sequence “TTTCCCATGGGAGAAGATAA (sugars e5 d10 e5, PS)” showed a target mRNA inhibition (HepG2, 0.12 µM) of 55%.

Sequence “CCCTTGCGGTTCCGCAGGGT (sugars e5 d10 e5, PS)” returned a target mRNA inhibition (HepG2, 0.12 µM) of 36%. Regarding “AGGCTCTGGTTCCATGCTCT (sugars e5 d10 e5, PS)”, the target mRNA inhibition turned out to be 61% (HepG2, 2.5 µM) and 79% (HepG2, 10 µM). As to “CATTGCCACCCCCATCCTCA (sugars e5 d10 e5, PS)”, the target mRNA inhibition (HepG2, 0.12 µM) turned out to be 9%. On the same count and under the same terms, the value for “CCTACAGCAGAGGGAAGATG (sugars e5 d10 e5, PS)” was 13%; that for “TATTTCTGGAACTTCTTCTG (sugars e5 d10 e5, PS)” was 22%.

As for “TGAGTAAGGGTATTCTGCTC (sugars e5 d10 e5, PS)”, the target mRNA inhibition is 80% and 72% (HepG2, 2.5 µM); 93% and 91% (HepG2, 10 µM). For the setting “HepG2, 0.12 µM”, “GATATAGTTCCTGGTGGTCA (sugars e5 d10 e5, PS)” gave a target mRNA inhibition of 57%. The same measure, in the same setting: under “GCATGGAGCTCAGAGACTCA (sugars e2 d13 e5, PS)” stands 77%; under “CTGGACAAGTCCTGCCCATC (sugars e3 d14 e3, PS)”, 67%; under “GGCAGGGCTTAGAATGGCTA (sugars e5 d10 e5, PS)”, 48%.

Sequence “CGGAGAGGATGCTGGATCCA (sugars e5 d10 e5, PS)” showed a target mRNA inhibition (HepG2, 0.12 µM) of 47%. For the sequence “TCATGAGAAGCTTAGAAGGC (sugars e5 d10 e5, PS)”, the target mRNA inhibition (HepG2, 0.12 µM) is 58%.

For the sequence “CCTGGACAAGTCCTGCCCAT (sugars e5 d10 e5, PS)”, the target mRNA inhibition (HepG2, 0.12 µM) stood at 73%. The same measure, in the same setting: under “GACCCACTGGAGCACTGAGA (sugars e2 d13 e5, PS)” stands 70%; under “TCCTGGTGGTCAGCAGGTTG (sugars e5 d10 e5, PS)”, 58%. As to “GAGCACAGCGATGAGCCAGC (sugars e5 d10 e5, PS)”, the target mRNA inhibition is, setting by setting: (HepG2, 2.5 µM) 43%; (HepG2, 10 µM) 91%. Turning to “CCAAAGATATAGTTCCTGGT (sugars e5 d10 e5, PS)”, under “HepG2, 0.12 µM”, the target mRNA inhibition came out at 66%.

As to “GTGGTTGCAATGTTGCCATC (sugars e5 d10 e5, PS)”, the target mRNA inhibition (HepG2, 2.5 µM) is 83% and 81% and 76%; the target mRNA inhibition (HepG2, 10 µM) was 92% and 84% and 91%.

Turning to “GCAGGTTGTGTGTCTTCACC (sugars e5 d10 e5, PS)”, under “HepG2, 0.12 µM”, the target mRNA inhibition is 65% and 73%.

For “AATGCCAATGCCTAGGT (sugars e3 d10 e4, PS)”, the target mRNA inhibition runs as follows: (HepG2, 2.5 µM) 70% and 69%; (HepG2, 10 µM) 81% and 82%. Under “HepG2, 0.12 µM”, “TTGTGTGTCTTCACCAGCTG (sugars e3 d14 e3, PS)” had a target mRNA inhibition of 60%.

In the case of “AGTAAGGGTATTCTGCTCAT (sugars e5 d10 e5, PS)”, the target mRNA inhibition turned out to be 87% (HepG2, 2.5 µM) and 77% (HepG2, 10 µM). On to “TATAGTTCCTGGTGGTCAGC (sugars e5 d10 e5, PS)”, for which the target mRNA inhibition (HepG2, 0.12 µM) stood at 56%. Still for that read-out and setting: under “AGGTTAGCTGAGCCACCCAG (sugars e5 d10 e5, PS)” stands 59%. The sequence “AGCATTGCCACTCCCATTCT (sugars e2 d13 e5, PS)” had a target mRNA inhibition (HepG2, 0.12 µM) of 50%.

“GGACACCTGGAGCTGCGGCC (sugars e5 d10 e5, PS)”: the target mRNA inhibition runs as follows: (HepG2, 2.5 µM) 35%; (HepG2, 10 µM) 73%. The sequence “CTGTGACCTCCTGCCACCTT (sugars e5 d10 e5, PS)” came in with a target mRNA inhibition (HepG2, 0.12 µM) of 25%. “CCCAACCTTTAAGGCCTATC (sugars e5 d10 e5, PS)”: the target mRNA inhibition worked out at 46% (HepG2, 2.5 µM) and 85% (HepG2, 10 µM). “CGCAGGGCCAGTTTCACAAA (sugars e5 d10 e5, PS)” had a target mRNA inhibition (HepG2, 0.12 µM) of 31%.

In the case of “CTCCTCCCCTTGGCAGAGAA (sugars e5 d10 e5, PS)”, the target mRNA inhibition (HepG2, 0.12 µM) was determined as 43%. “AAATCCATGTCAGAGAGGCT (sugars e5 d10 e5, PS)”: the target mRNA inhibition reads like this: (HepG2, 2.5 µM) 64%; (HepG2, 10 µM) 92%. Consider “TCACTTGCTTGAGGTCAGGG (sugars e5 d10 e5, PS)”, for which the target mRNA inhibition by setting is: (HepG2, 2.5 µM) 71% and 79%; (HepG2, 10 µM) 80% and 89%. Sequence “CTGGAGGCCAGTCCAGGCTC (sugars e5 d10 e5, PS)” gave a target mRNA inhibition (HepG2, 0.12 µM) of 23%. On to “TGGTTGCAATGTTGCCATCA (sugars e5 d10 e5, PS)”, for which the target mRNA inhibition was 94% and 78% (HepG2, 2.5 µM); 94% and 93% (HepG2, 10 µM). “ATAACCCACAGACACCCATG (sugars e5 d10 e5, PS)”: the target mRNA inhibition (HepG2, 0.12 µM) was determined as 24%. Consider “CGATTCACTGAGGACCTCAG (sugars e5 d10 e5, PS)”, for which the target mRNA inhibition by setting is: (HepG2, 2.5 µM) 79%; (HepG2, 10 µM) 61%. For the sequence “GGTGACTGCATTCTTGCCAG (sugars e5 d10 e5, PS)”, the target mRNA inhibition (HepG2, 0.12 µM) was 25%. Turning to “TCACCAGATTGTTGTGGGAA (sugars e5 d10 e5, PS)”, the target mRNA inhibition reads like this: (HepG2, 2.5 µM) 69%; (HepG2, 10 µM) 78%.

Under “HepG2, 0.12 µM”, “GCCGTATGCCTGGGAACTTC (sugars e5 d10 e5, PS)” showed a target mRNA inhibition of 29%. With “CGGACTGAATGTCACCTCTT (sugars e5 d10 e5, PS)”, the target mRNA inhibition (HepG2, 2.5 µM) is 74% and 73%; the target mRNA inhibition (HepG2, 10 µM) was 90% and 76%. For the sequence “ATCTCAGTCACTGACTCACA (sugars e5 d10 e5, PS)”, the target mRNA inhibition by setting is: (HepG2, 2.5 µM) 46%; (HepG2, 10 µM) 95%. For “AGTTTGCTCAGTTCTTCCAA (sugars e5 d10 e5, PS)”, the target mRNA inhibition reads like this: (HepG2, 2.5 µM) 61%; (HepG2, 10 µM) 91%.

Regarding “GCACTCTGTGATGCTCTGGA (sugars e5 d10 e5, PS)”, for the setting “HepG2, 10 µM”, the target mRNA inhibition was 90% and 84%.

Take “AGGCCTCGGGAAGCACCTGG (sugars e5 d10 e5, PS)”: the target mRNA inhibition runs as follows: (HepG2, 2.5 µM) 39%; (HepG2, 10 µM) 84%. Consider “TCCCAGACCCCTCGCGCGAC (sugars e5 d10 e5, PS)”, for which the target mRNA inhibition (HepG2, 0.12 µM) was 36%. Same read-out and setting: under “CTTGCCAGGCATGGAGCTCA (sugars e5 d10 e5, PS)” stands 51%. For the sequence “ACCTCGATGTTACATTAAGG (sugars e5 d10 e5, PS)”, the target mRNA inhibition came out at 68% (HepG2, 2.5 µM) and 90% (HepG2, 10 µM). For “AGTTTCCTTTGAAATCCAAT (sugars e5 d10 e5, PS)” the same measures were 65% and 88%.

For the sequence “CGCAGGACCCCGGAGTAGGC (sugars e3 d14 e3, PS)”, the target mRNA inhibition (HepG2, 0.12 µM) amounted to 65%.

Regarding “AAACCCTCGACTGAGTGTGA (sugars e5 d10 e5, PS)”, where the note is “HepG2, 0.12 µM”, the target mRNA inhibition is 37%. With “AGGCTGAGTTCTGCTCCTGG (sugars e5 d10 e5, PS)”, the target mRNA inhibition (HepG2, 2.5 µM) turned out to be 72% and the target mRNA inhibition (HepG2, 10 µM) was 78%. Regarding “GTTTACTGTGGCACTAAGCT (sugars e5 d10 e5, PS)”, the target mRNA inhibition is 57% (HepG2, 2.5 µM) and 84% (HepG2, 10 µM).

Turning to “TGCTCAGTTCTTCCAACCAG (sugars e5 d10 e5, PS)”, the target mRNA inhibition is, setting by setting: (HepG2, 2.5 µM) 86% and 79%; (HepG2, 10 µM) 93% and 94%. In turn, “AGTTCCTGGTGGTCAGCAGG (sugars e5 d10 e5, PS)” registered a target mRNA inhibition (HepG2, 0.12 µM) of 58%.

Turning to “GGCCTTGGCTGCAAGCTCTG (sugars e5 d10 e5, PS)”, the target mRNA inhibition is, setting by setting: (HepG2, 2.5 µM) 52%; (HepG2, 10 µM) 67%. Under “HepG2, 0.12 µM”, “GCATTGCCACTCCCATTCTT (sugars e2 d13 e5, PS)” registered a target mRNA inhibition of 61%.

Take “CCACCTTCCAGGGAATAAAA (sugars e5 d10 e5, PS)”: the target mRNA inhibition (HepG2, 0.12 µM) is 22%. Take “CCCTGGGACTCAGTGTCCTC (sugars e5 d10 e5, PS)”: the target mRNA inhibition was 90% (HepG2, 2.5 µM) and 83% (HepG2, 10 µM). “GCGCAGGACCCCGGAGTAGG (sugars e2 d13 e5, PS)”: for the setting “HepG2, 0.12 µM”, the target mRNA inhibition turned out to be 72%. As to “AGCTGCTTTTCCACCTTGGA (sugars e2 d16 e2, PS)”, under “HepG2, 0.12 µM”, the target mRNA inhibition is 45%. Consider “CTCCCATTCTTTGAAAGCAA (sugars e5 d10 e5, PS)”, for which the target mRNA inhibition runs as follows: (HepG2, 2.5 µM) 30%; (HepG2, 10 µM) 54%.

Source of the values: the OligoGym collection.
